Results on four compounds are retold here after article PMC12383972, “Oral Pharmacokinetic Evaluation of a Microemulsion-Based Delivery System for Novel A190 Prodrugs” (Biomolecules, 2025).

For one series, the system named is Caco-2 cells. The arrangement: method as in PMID 39879378. The following applies: Caco-2, in 0.2% DMSO, 24 h and 48 h; cited from earlier work.
A further series has as its system CYP450. More on the design: method as in PMID 32582345. The following applies: preclinical assessment; cited from earlier work.
For a further series, the system named is PPARα. More on the design: method as in PMID 32096640, PMID 39961437. The following applies: cited from earlier work.
Details of series [1]: method as in PMID 32582345. Particulars: preclinical assessment; cited from earlier work.
Details of series [2]: method as in PMID 39879378. Particulars: PAMPA, cited from earlier work.
The subject of the next series is HepG2 cells. More on the design: method as in PMID 39879378. The following applies: HepG2, in 0.2% DMSO, 24 h and 48 h; cited from earlier work.
A further series has as its system hERG. More on the design: method as in PMID 32582345. Particulars: preclinical assessment; cited from earlier work.
Series [3] is described as follows: Bioconversion of prodrugs in rat plasma. Particulars: 37 °C; for half-life at 100 μM / Prodrug bioconversion half-life (Rat plasma): 100 μM prodrug; for half-life at 100 μM: pooled rat plasma; for Prodrug bioconversion half-life (Rat plasma): Figure 3E. In kind it is in vitro ADME. The method, then:
(§1) Conversion of the respective prodrugs to the parent drug A190 was assessed in pooled rat and rabbit plasma. Following pre-incubation of plasma at 37 °C for 5 min, stock solution of each prodrug (10 mM) was spiked into the plasma to reach a final concentration of 100 μM. The mixture was incubated at 37 °C, 200 rpm on a temperature-controlled orbital shaker. Incubation mixture (200 μL) was withdrawn at pre-determined time points, and the reaction was terminated by the addition of 700 μL of ice cold ACN. 100 μL of internal standard (0.5 μg/mL of fenofibric acid) was then spiked, and the samples were vortexed and centrifuged at 10,000× g for 10 min. The resulting supernatants were collected and filtered using PTFE filters and injected into HPLC-UV system. The LC system was a reverse phased Shimadzu Prominence (Kyoto, Japan) using a Pursuit 5 C18 column. Isocratic separation was performed with mobile phase consisting of ACN/water (80/20 v/v) containing 0.1% trifluoroacetic acid and monitored at a UV detection of 227 nm.

Series [4] can be described thus: Chemical hydrolysis stability in PBS pH 7.4. In kind it is physicochemical. Particulars: PBS pH 7.4, 37 °C, 100 μM. The procedure: Chemical hydrolysis stability of each prodrug was assessed in a physiological pH 7.4 using phosphate buffered saline solution (PBS) as previously described. After preincubation of PBS solution at 37 °C for 5 min, stock solution of each prodrug (10 mM) was spiked to a final concentration of 100 μM. The samples were then incubated at 37 °C on a temperature-controlled orbital shaker operating at 200 rpm. At predetermined time points, 200 μL of incubation mixture was withdrawn and quenched with 100 μL of internal standard (0.5 μg/mL of fenofibric acid) and 700 μL ice cold ACN. Drug concentration was analyzed using HPLC-UV method as described earlier to assess the amount of prodrug recovered compared to the starting timepoint.

The nature of series [5]: Bioconversion of prodrugs in rabbit plasma. The following applies: 37 °C; for half-life at 100 μM / Prodrug bioconversion half-life (Rabbit plasma): 100 μM prodrug; for half-life at 100 μM: pooled rabbit plasma; for Prodrug bioconversion half-life (Rabbit plasma): Figure 3E. In kind it is in vitro ADME. The method, then: as §1

What is called EC50 is the concentration at which the effect is half-maximal. Turning to `Cc1cc(CNc2cccc(C(=O)O)c2)ccc1OCc1ccc(F)cc1` [A190, 3-((4-((4-fluorobenzyl)oxy)-3-methylbenzyl)amino)benzoic acid], the “concentration up to which safe” value in the series with Caco-2 cells and in the series on HepG2 cells was < 50 µM each time. Also, the CYP450 liability result in the series with CYP450 is “absence”. In addition, in the series on PPARα (PPAR-α over γ/δ isoforms), the subtype selectivity is recorded as > 2700 fold. The EC50 with PPARα (PPARα agonism) is < 40 nM. Also, the microsomal metabolic stability result in series [1] is recorded as “acceptable”. Besides, in series [2] (dispersion form), the “effective permeability (Pe), dispersion form” value was 0.13 ± 0.04 × 10^−6 cm/s. Also, the “effective permeability (Pe), A190 in PBS” value in series [2] (in PBS) is on record as 0.09 ± 0.02 × 10^−6 cm/s. Besides, the hERG-related cardiotoxicity entry in the series with hERG is “absence”.
As a reminder, the half-life is the time needed for the level to fall by half in the phase considered. As to `CCOC(=O)c1cccc(NCc2ccc(OCc3ccc(F)cc3)c(C)c2)c1` [A190-PD-14, Ethyl 3-((4-((4-Fluorobenzyl)oxy)-3-Methylbenzyl)amino)benzoate], in series [3], the half-life at 100 μM was 2.6 h and the “Prodrug bioconversion half-life (Rat plasma)” value worked out at 2.6 h. In addition, the “drug remaining at 2 h” value in series [4] came out at 10%. In series [5], the half-life at 100 μM was 8.2 h and the “Prodrug bioconversion half-life (Rabbit plasma)” value amounted to 8.2 h.
Consider `COC(=O)c1cccc(NCc2ccc(OCc3ccc(F)cc3)c(C)c2)c1` [A190-PD-9, Methyl 3-((4-((4-Fluorobenzyl)oxy)-3-Methylbenzyl)amino)benzoate], for which, in series [3], the half-life at 100 μM is 9.6 h and the “Prodrug bioconversion half-life (Rat plasma)” value was 9.6 h. Besides, the “original concentration retained after 120 min in rat plasma” value in [3] (100 μM, 120 min) is reported as ≥ 80%. Also, in series [4], the “drug remaining at 2 h” value is reported as “about 40%”. Moreover, in [5], the half-life at 100 μM was 7.2 h and the “Prodrug bioconversion half-life (Rabbit plasma)” value worked out at 7.2 h. Moreover, the “original concentration retained after 120 min in rabbit plasma” value in [5] (100 μM, 120 min) is given as ≥ 80%.
As to `Cc1cc(CNc2cccc(C(=O)OC(C)C)c2)ccc1OCc1ccc(F)cc1` [A190-PD-154, Isopropyl 3-((4-((4-Fluorobenzyl)oxy)-3-Methylbenzyl)amino)benzoate], in series [3], the half-life at 100 μM was 6.8 h and the “Prodrug bioconversion half-life (Rat plasma)” value was 6.8 h. Further, the “drug remaining at 2 h” value in series [4] is reported as 10%. In addition, in [5], the half-life at 100 μM is 1.4 h and the “Prodrug bioconversion half-life (Rabbit plasma)” value was found to be 1.4 h.
